# Target: T1, human β3 adrenergic receptor (Homo sapiens, UniProt P13945)
# T1 construct: stably transfected with the cloned β-adrenergic receptor (β1, β2 or β3); expressed in transfected cells; host or cells: Chinese hamster ovary (CHO) cells, stably transfected
# Experiment: Functional assay: cAMP production (LANCE TR-FRET) in CHO cells stably transfected with cloned β3 adrenergic receptor
# Format: cell-based
# Settings: Table 2; cAMP production, CHO cells expressing human β3 AR; read-out: Human β3 functional
# T1 sequence (P13945 whole entry): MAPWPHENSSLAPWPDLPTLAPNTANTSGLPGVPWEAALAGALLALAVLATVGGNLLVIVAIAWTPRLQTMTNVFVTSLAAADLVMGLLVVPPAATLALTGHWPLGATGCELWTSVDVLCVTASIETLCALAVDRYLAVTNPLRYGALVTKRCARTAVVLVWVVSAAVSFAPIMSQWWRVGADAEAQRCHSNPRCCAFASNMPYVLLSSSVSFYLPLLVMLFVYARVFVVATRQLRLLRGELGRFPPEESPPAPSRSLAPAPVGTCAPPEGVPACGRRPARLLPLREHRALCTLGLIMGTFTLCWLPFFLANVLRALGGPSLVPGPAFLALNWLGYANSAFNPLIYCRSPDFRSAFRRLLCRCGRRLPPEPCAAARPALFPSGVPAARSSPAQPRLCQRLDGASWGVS
row,SMILES,EC50 [nM]
1,O=C(Cn1ccc(=O)[nH]c1=O)Nc1ccc(CC2CC[C@H]([C@H](O)c3cccnc3)N2)cc1 (some centres unmarked) [Example 61],1 to 10
2,Cc1cn(CC(=O)Nc2ccc(CC3CC[C@H]([C@H](O)c4cccnc4)N3)cc2)c(=O)[nH]c1=O (some centres unmarked) [Example 62],11 to 100
3,O=C(Cn1ccncc1=O)Nc1ccc(CC2CC[C@H]([C@H](O)c3cccnc3)N2)cc1 (some centres unmarked) [Example 63],11 to 100
4,O=C(Cn1c(=O)[nH]c2ccccc2c1=O)Nc1ccc(CC2CC[C@H]([C@H](O)c3cccnc3)N2)cc1 (some centres unmarked) [Example 65],1 to 10
5,O=C(Cn1nc(Cl)ccc1=O)Nc1ccc(CC2CC[C@H]([C@H](O)c3cccnc3)N2)cc1 (some centres unmarked) [Example 66],11 to 100
6,O=C(Cn1[nH]c(=O)c2ccccc2c1=O)Nc1ccc(CC2CC[C@H]([C@H](O)c3cccnc3)N2)cc1 (some centres unmarked) [Example 67],11 to 100
7,Cc1nonc1CC(=O)Nc1ccc(CC2CC[C@H]([C@H](O)c3cccnc3)N2)cc1 (some centres unmarked) [Example 68],11 to 100
8,CC1=NN(CC(=O)Nc2ccc(CC3CC[C@H]([C@H](O)c4cccnc4)N3)cc2)C(=O)C1C (some centres unmarked) [Example 69],11 to 100
9,CC1=NN(CC(=O)Nc2ccc(CC3CC[C@H]([C@H](O)c4cccnc4)N3)cc2)C(=O)C1 (some centres unmarked) [Example 70],11 to 100
10,O=C(CC1NC(=O)NC1=O)Nc1ccc(CC2CC[C@H]([C@H](O)c3cccnc3)N2)cc1 (some centres unmarked) [Example 71],101 to 1000
11,O=C(CC1NC(=S)N(c2ccccc2)C1=O)Nc1ccc(CC2CC[C@H]([C@H](O)c3cccnc3)N2)cc1 (some centres unmarked) [Example 72],11 to 100
12,O=C(Cc1n[nH]c(=O)[nH]1)Nc1ccc(CC2CC[C@H]([C@H](O)c3cccnc3)N2)cc1 (some centres unmarked) [Example 73],11 to 100
13,O=C(Cc1csc(=S)[nH]1)Nc1ccc(CC2CC[C@H]([C@H](O)c3cccnc3)N2)cc1 (some centres unmarked) [Example 74],11 to 100
14,O=C(Cn1cnc2ccsc2c1=O)Nc1ccc(CC2CC[C@H]([C@H](O)c3cccnc3)N2)cc1 (some centres unmarked) [Example 75],1 to 10
15,Cn1ncc2ncn(CC(=O)Nc3ccc(CC4CC[C@H]([C@H](O)c5cccnc5)N4)cc3)c(=O)c21 (some centres unmarked) [Example 76],1 to 10
16,O=C(Cc1ccccc1F)Nc1ccc(CC2CC[C@H]([C@H](O)c3cccnc3)N2)cc1 (some centres unmarked) [Example 77],11 to 100

# Second part, the compound after the results:
row,EC50 [nM],SMILES
1,1 to 10,O=C(Cc1c(F)cccc1F)Nc1ccc(CC2CC[C@H]([C@H](O)c3cccnc3)N2)cc1 (some centres unmarked) [Example 78]
2,11 to 100,O=C(Cc1cccc(F)c1F)Nc1ccc(CC2CC[C@H]([C@H](O)c3cccnc3)N2)cc1 (some centres unmarked) [Example 79]
3,11 to 100,Cc1nc(CC(=O)Nc2ccc(CC3CC[C@H]([C@H](O)c4cccnc4)N3)cc2)no1 (some centres unmarked) [Example 80]
4,11 to 100,O=C(Cc1csc(-c2ccccn2)n1)Nc1ccc(CC2CC[C@H]([C@H](O)c3cccnc3)N2)cc1 (some centres unmarked) [Example 81]
5,1 to 10,O=C(Cc1csc(-c2cccnc2)n1)Nc1ccc(CC2CC[C@H]([C@H](O)c3cccnc3)N2)cc1 (some centres unmarked) [Example 82]
6,101 to 1000,COC(=O)CCC(=O)Nc1ccc(CC2CC[C@H]([C@H](O)c3cccnc3)N2)cc1 (some centres unmarked) [Example 83]
7,101 to 1000,O=C(O)CCC(=O)Nc1ccc(CC2CC[C@H]([C@H](O)c3cccnc3)N2)cc1 (some centres unmarked) [Example 84]
8,11 to 100,O=C(CN1CCCOC1=O)Nc1ccc(CC2CC[C@H]([C@H](O)c3cccnc3)N2)cc1 (some centres unmarked) [Example 85]
9,101 to 1000,CN1CCN(CC(=O)Nc2ccc(CC3CC[C@H]([C@H](O)c4cccnc4)N3)cc2)C1=O (some centres unmarked) [Example 86]
10,101 to 1000,CN1CCCN(CC(=O)Nc2ccc(CC3CC[C@H]([C@H](O)c4cccnc4)N3)cc2)C1=O (some centres unmarked) [Example 87]
11,101 to 1000,Cc1nn(C)c(O)c1CC(=O)Nc1ccc(CC2CC[C@H]([C@H](O)c3cccnc3)N2)cc1 (some centres unmarked) [Example 88]
12,11 to 100,NC(=O)c1ccn(CC(=O)Nc2ccc(CC3CC[C@H]([C@H](O)c4cccnc4)N3)cc2)n1 (some centres unmarked) [Example 89]
13,11 to 100,NC(=O)c1cnn(CC(=O)Nc2ccc(CC3CC[C@H]([C@H](O)c4cccnc4)N3)cc2)c1 (some centres unmarked) [Example 90]

# Source: patent US8501786B2, “Hydroxymethyl pyrrolidines as beta 3 adrenergic receptor agonists” (Merck Sharp & Dohme Corp., priority 2009, dated 2013)
